Reference: PMC8564633, “SMAC/Diablo controls proliferation of cancer cells by regulating phosphatidylethanolamine synthesis” (Molecular Oncology, 2021)
Non-standard residues stand in square brackets, D forms with d. Residues, ends and D or L forms follow the SMILES beside them. Dmt = Cc1cc(O)cc(C)c1C[C@H](N)C(=O)O; Orn = NCCC[C@H](N)C(=O)O

Test system: A549 cells
Format: cell-based, human
Conditions: 24 h
Protocol: Cells were seeded in 96‐well cell culture plates (8000/well) and allowed to grow for 48 h. After washing with PBS, cells were fixed with 50% trichloroacetic acid and stained with SRB for 20 min. Excess SRB was removed, and cells were washed with 1% acetic acid. SRB extraction was done using 100 mM Tris‐base, and absorbance at 510 nm was determined using an Infinite M1000 plate reader (Tecan, Männedorf, Switzerland).
Fig. 7 PSD‐interacting peptides bind to PSD, inhibiting its activity, and when cell‐penetrating and mitochondria‐ or nucleus‐targeted, inhibit cell proliferation. […] (B) Inhibition of PSD activity by the 2F3 (●) or 1C11 (○) peptide. PSD activity was measured using the DSB‐3 method. (C‐E) Cell proliferation inhibition following incubation of A549 cells with the indicated mitochondria‐ or nucleus‐targeted peptides for 24 h in a serum‐free medium, and cell proliferation was assayed using the SRB method. Results are the means ± SEM (n = 3). (F) A549 cells were incubated for 90 min with 5 µM of the mitochondria‐ or nucleus‐targeted FITC‐labelled peptides, immunostained with anti‐SMAC antibodies and with DAPI and visualized by confocal microscope for subcellular localization. (a) and (b) present higher magnification, white arrows point to possible nuclear localization of the peptide, and blue arrows to its colocalization with mitochondria marker (n = 3). Scale bars represent 20, 10 µm as indicated.
Table S4. Effects of peptide identified as interacting with PSD or their interaction with SMAC/Diablo is prevented in the presence of PSD on A549 lung cancer cell growth A549 cells were seeded in 96-well plate (7000 cells/well). After 24 h cells were incubated without or with the indicated peptide concentration for 24 h in a serum-free medium. Then, cells were washed with PBS, and analyzed for cell growth using the SRB method. Results are the mean ± SD (n=3). Peptide sequence, its identification manner, based on interacting with PSD or their interaction with SMAC/Diablo is prevented in the presence of PSD are shown. In addition, the peptides are presented with the cell penetrating peptide targeting to the mitochondria or the nucleus. The results are presented as the concentration required for 50% inhibition (IC50).
No Peptide spot and Protein/Function Peptide and Cellular IC50 […]
ALSTSSPIPSVPQSQ transcriptional coactivator 2 Mitochondria (A) […]
AQPQTGSGAS truncated poly Q, transcriptional H-(D-Arg)–Dmt–Orn–Phe- 2F3 >100 Interacting with PSD coactivator for NOTCH proteins, Mitochondria promotes proliferative signaling R-{D-Arg}-RK- 2F3 28.9±5.2 during neurogenesis (Nucleus). Nucleus […]
PNQSSRAFQGTDHS transcriptional coactivator 2 Mitochondria
SDLAFDFLSQQ truncated poly Q, A transcriptional D-Arg–Dmt–Orn–Phe-2I8 66.8±4.7 Identified by PSD coactivator for NOTCH proteins, Mitochondria preventing SMAC promotes proliferative signaling R-{D-Arg}-RK-2I8 >100 interaction with it during neurogenesis (Nucleus). Nucleus […]
ALLTSGTSDPRARV protease promotes cell death either Mitochondria […]
TYGTPSLWARL by direct binding to IAPs proteins D-Arg–Dmt–Orn–Phe -1C11 89.3±5.49 Interacting with PSD leading to increased caspase Mitochondria activity or caspase-independent and serine protease activity-dependent R-{D-Arg}-RK- 1C11 66.5±3.9 mechanism. (Mitochondrion Nucleus intermembrane space). 1C11- R-{D-Arg}-RK 30.0±3.8 […]
ELYRMSTYSTFPAG Acts as an E3 ubiquitin-protein Mitochondria
VPVSERSLARA ligase, regulator of NF-kappa-B 1E14- D-Arg–Dmt–Orn–Phe >100 Identified by PSD signaling, apoptosis, cell Mitochondria preventing SMAC proliferation, cell invasion and R-{D-Arg}-RK-1E14 >100 interaction with it metastasis, modulates inflammatory Nucleus signaling, (Cytosol, nucleus and […]

Compound: Cc1cc(O)cc(C)c1C[C@H](NC(=O)[C@H](N)CCCNC(=N)N)C(=O)N[C@@H](CCCN)C(=O)N[C@@H](Cc1ccccc1)C(=O)N[C@@H](C)C(=O)N[C@@H](CC(C)C)C(=O)N[C@@H](CC(C)C)C(=O)N[C@H](C(=O)N[C@@H](CO)C(=O)NCC(=O)N[C@H](C(=O)N[C@@H](CO)C(=O)N[C@@H](CC(=O)O)C(=O)N1CCC[C@H]1C(=O)N[C@@H](CCCNC(=N)N)C(=O)N[C@@H](C)C(=O)N[C@@H](CCCNC(=N)N)C(=O)N[C@H](C(=O)N[C@H](C(=O)N[C@@H](Cc1ccc(O)cc1)C(=O)NCC(=O)N[C@H](C(=O)N1CCC[C@H]1C(=O)N[C@@H](CO)C(=O)N[C@@H](CC(C)C)C(=O)N[C@@H](Cc1c[nH]c2ccccc12)C(=O)N[C@@H](C)C(=O)N[C@@H](CCCNC(=N)N)C(=O)N[C@@H](CC(C)C)C(=O)O)[C@@H](C)O)[C@@H](C)O)C(C)C)[C@@H](C)O)[C@@H](C)O [D-Arg–Dmt–Orn–Phe -1C11] (H-[dR][Dmt][Orn]FALLTSGTSDPRARVTYGTPSLWARL-OH; N-terminus and C-terminus assumed)
- IC50: 89.3 ± 5.49 µM

Compound: CC(C)C[C@H](NC(=O)[C@H](CC(=O)O)NC(=O)[C@H](CO)NC(=O)[C@H](CO)NC(=O)[C@H](Cc1c[nH]cn1)NC(=O)[C@H](CC(=O)O)NC(=O)[C@@H](NC(=O)CNC(=O)[C@H](CCC(N)=O)NC(=O)[C@H](Cc1ccccc1)NC(=O)[C@H](C)NC(=O)[C@H](CCCNC(=N)N)NC(=O)[C@H](CO)NC(=O)[C@H](CO)NC(=O)[C@H](CCC(N)=O)NC(=O)[C@H](CC(N)=O)NC(=O)[C@@H]1CCCN1)[C@@H](C)O)C(=O)N[C@@H](C)C(=O)N[C@@H](Cc1ccccc1)C(=O)N[C@@H](CC(=O)O)C(=O)N[C@@H](Cc1ccccc1)C(=O)N[C@@H](CC(C)C)C(=O)N[C@@H](CO)C(=O)N[C@@H](CCC(N)=O)C(=O)N[C@@H](CCC(N)=O)C(=O)N[C@@H](CCCNC(=N)N)C(=O)N[C@H](CCCNC(=N)N)C(=O)N[C@@H](CCCNC(=N)N)C(=O)N[C@@H](CCCCN)C(=O)O [2I8-R-{D-Arg}-RK] (H-PNQSSRAFQGTDHSSDLAFDFLSQQR[dR]RK-OH; N-terminus and C-terminus assumed)
- IC50: 19.7 µM

Compound: CSCC[C@H](NC(=O)[C@H](CCCNC(=N)N)NC(=O)[C@H](Cc1ccc(O)cc1)NC(=O)[C@H](CC(C)C)NC(=O)[C@@H](N)CCC(=O)O)C(=O)N[C@@H](CO)C(=O)N[C@H](C(=O)N[C@@H](Cc1ccc(O)cc1)C(=O)N[C@@H](CO)C(=O)N[C@H](C(=O)N[C@@H](Cc1ccccc1)C(=O)N1CCC[C@H]1C(=O)N[C@@H](C)C(=O)NCC(=O)N[C@H](C(=O)N1CCC[C@H]1C(=O)N[C@H](C(=O)N[C@@H](CO)C(=O)N[C@@H](CCC(=O)O)C(=O)N[C@@H](CCCNC(=N)N)C(=O)N[C@@H](CO)C(=O)N[C@@H](CC(C)C)C(=O)N[C@@H](C)C(=O)N[C@@H](CCCNC(=N)N)C(=O)N[C@@H](C)C(=O)N[C@H](CCCNC(=N)N)C(=O)N[C@@H](Cc1c(C)cc(O)cc1C)C(=O)N[C@@H](CCCN)C(=O)N[C@@H](Cc1ccccc1)C(N)=O)C(C)C)C(C)C)[C@@H](C)O)[C@@H](C)O [1E14-D-Arg–Dmt–Orn–Phe] (H-ELYRMSTYSTFPAGVPVSERSLARA[dR][Dmt][Orn]F-NH2; N-terminus and C-terminus assumed)
- IC50: > 100 µM

Compound: CC[C@H](C)[C@H](NC(=O)[C@@H]1CCCN1C(=O)[C@H](CO)NC(=O)[C@H](CO)NC(=O)[C@@H](NC(=O)[C@H](CO)NC(=O)[C@H](CC(C)C)NC(=O)[C@H](C)NC(=O)[C@H](Cc1ccccc1)NC(=O)[C@H](CCCN)NC(=O)[C@H](Cc1c(C)cc(O)cc1C)NC(=O)[C@H](N)CCCNC(=N)N)[C@@H](C)O)C(=O)N1CCC[C@H]1C(=O)N[C@@H](CO)C(=O)N[C@H](C(=O)N1CCC[C@H]1C(=O)N[C@@H](CCC(N)=O)C(=O)N[C@@H](CO)C(=O)N[C@@H](CCC(N)=O)C(=O)N[C@@H](C)C(=O)N[C@@H](CCC(N)=O)C(=O)N1CCC[C@H]1C(=O)N[C@@H](CCC(N)=O)C(=O)N[C@H](C(=O)NCC(=O)N[C@@H](CO)C(=O)NCC(=O)N[C@@H](C)C(=O)N[C@@H](CO)C(=O)O)[C@@H](C)O)C(C)C [H-(D-Arg)–Dmt–Orn–Phe- 2F3] (H-[dR][Dmt][Orn]FALSTSSPIPSVPQSQAQPQTGSGAS-OH; C-terminus assumed)
- IC50: > 100 µM

Compound: CSCC[C@H](NC(=O)[C@H](CCCNC(=N)N)NC(=O)[C@H](Cc1ccc(O)cc1)NC(=O)[C@H](CC(C)C)NC(=O)[C@H](CCC(=O)O)NC(=O)[C@H](CCCCN)NC(=O)[C@H](CCCNC(=N)N)NC(=O)[C@@H](CCCNC(=N)N)NC(=O)[C@@H](N)CCCNC(=N)N)C(=O)N[C@@H](CO)C(=O)N[C@H](C(=O)N[C@@H](Cc1ccc(O)cc1)C(=O)N[C@@H](CO)C(=O)N[C@H](C(=O)N[C@@H](Cc1ccccc1)C(=O)N1CCC[C@H]1C(=O)N[C@@H](C)C(=O)NCC(=O)N[C@H](C(=O)N1CCC[C@H]1C(=O)N[C@H](C(=O)N[C@@H](CO)C(=O)N[C@@H](CCC(=O)O)C(=O)N[C@@H](CCCNC(=N)N)C(=O)N[C@@H](CO)C(=O)N[C@@H](CC(C)C)C(=O)N[C@@H](C)C(=O)N[C@@H](CCCNC(=N)N)C(=O)N[C@@H](C)C(=O)O)C(C)C)C(C)C)[C@@H](C)O)[C@@H](C)O [R-{D-Arg}-RK-1E14] (H-R[dR]RKELYRMSTYSTFPAGVPVSERSLARA-OH; N-terminus and C-terminus assumed)
- IC50: > 100 µM

Compound: Cc1cc(O)cc(C)c1C[C@H](NC(=O)[C@@H](CCCNC(=N)N)NC(=O)[C@H](CC(C)C)NC(=O)[C@H](CCCNC(=N)N)NC(=O)[C@H](C)NC(=O)[C@H](Cc1c[nH]c2ccccc12)NC(=O)[C@H](CC(C)C)NC(=O)[C@H](CO)NC(=O)[C@@H]1CCCN1C(=O)[C@@H](NC(=O)CNC(=O)[C@H](Cc1ccc(O)cc1)NC(=O)[C@@H](NC(=O)[C@@H](NC(=O)[C@H](CCCNC(=N)N)NC(=O)[C@H](C)NC(=O)[C@H](CCCNC(=N)N)NC(=O)[C@@H]1CCCN1C(=O)[C@H](CC(=O)O)NC(=O)[C@H](CO)NC(=O)[C@@H](NC(=O)CNC(=O)[C@H](CO)NC(=O)[C@@H](NC(=O)[C@H](CC(C)C)NC(=O)[C@H](CC(C)C)NC(=O)[C@H](C)N)[C@@H](C)O)[C@@H](C)O)C(C)C)[C@@H](C)O)[C@@H](C)O)C(=O)N[C@@H](CCCN)C(=O)N[C@@H](Cc1ccccc1)C(N)=O [1C11-D-Arg–Dmt–Orn–Phe] (H-ALLTSGTSDPRARVTYGTPSLWARL[dR][Dmt][Orn]F-NH2; N-terminus and C-terminus assumed)
- IC50: 30.3 ± 5.5 µM

Compound: Cc1cc(O)cc(C)c1C[C@H](NC(=O)[C@@H](CCCNC(=N)N)NC(=O)[C@H](CCC(N)=O)NC(=O)[C@H](CCC(N)=O)NC(=O)[C@H](CO)NC(=O)[C@H](CC(C)C)NC(=O)[C@H](Cc1ccccc1)NC(=O)[C@H](CC(=O)O)NC(=O)[C@H](Cc1ccccc1)NC(=O)[C@H](C)NC(=O)[C@H](CC(C)C)NC(=O)[C@H](CC(=O)O)NC(=O)[C@H](CO)NC(=O)[C@H](CO)NC(=O)[C@H](Cc1c[nH]cn1)NC(=O)[C@H](CC(=O)O)NC(=O)[C@@H](NC(=O)CNC(=O)[C@H](CCC(N)=O)NC(=O)[C@H](Cc1ccccc1)NC(=O)[C@H](C)NC(=O)[C@H](CCCNC(=N)N)NC(=O)[C@H](CO)NC(=O)[C@H](CO)NC(=O)[C@H](CCC(N)=O)NC(=O)[C@H](CC(N)=O)NC(=O)[C@@H]1CCCN1)[C@@H](C)O)C(=O)N[C@@H](CCCN)C(=O)N[C@@H](Cc1ccccc1)C(N)=O [2I8- (D-Arg)-Dmt-Orn-Phe-NH2] (H-PNQSSRAFQGTDHSSDLAFDFLSQQ[dR][Dmt][Orn]F-NH2; N-terminus assumed)
- IC50: 30.2 ± 3.6 µM
